Reference: patent publication US12606561B2, “Substituted pyrazolo[1,5-a][1,3,5]triazines as CDK inhibitors” (QURIENT CO., LTD., priority 2018, dated 2026)

Legend:
[1] = tested on: A2780; assay: A2780 viability assay (CellTiter-Glo, 72 hours); assay type: cell-based; settings: Homo sapiens; A2780 cells
In short: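 Cells grown in RPMI-1640 with 10% FBS were seeded at 1×10^4/well (MV4-11), 5×10^3 (OVCAR-3) or 1×10^3 (A2780), then dosed 24 h later with compound at 0.0015 uM to 10 uM, DMSO <0.1%. Viability was read by CellTiter-Glo luminescence after 72 h at 37° C, in duplicate.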

[2] = biological target: T1, CDK2/Cyclin A (Homo sapiens, UniProt P24941); assay: Enzymatic assay for CDK2 (LANCE Ultra kinase assay, FRET based); assay type: biochemical; settings: ATP at Km
T1 construct: purchased Invitrogen PV6290
In short: (§1)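 TR-FRET kinase assay at ATP Km with ULight-MBP peptide (68 nM) and Eu-anti-phospho-MBP antibody; CDK2/Cyclin A at […], CDK5/p25 at […]. 8-dose 4-fold compound dilutions; 60 min kinase reaction at 23° C., EDTA stop, 60 min detection, read at 615/665 nm.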

[3] = biological target: T2, CDK5/p25 (Homo sapiens, UniProt Q00535); assay: Enzymatic assay for CDK5 (LANCE Ultra kinase assay, FRET based); assay type: biochemical; settings: ATP at Km
T2 construct: purchased Invitrogen PR8543B
T2 sequence (Q00535 whole entry): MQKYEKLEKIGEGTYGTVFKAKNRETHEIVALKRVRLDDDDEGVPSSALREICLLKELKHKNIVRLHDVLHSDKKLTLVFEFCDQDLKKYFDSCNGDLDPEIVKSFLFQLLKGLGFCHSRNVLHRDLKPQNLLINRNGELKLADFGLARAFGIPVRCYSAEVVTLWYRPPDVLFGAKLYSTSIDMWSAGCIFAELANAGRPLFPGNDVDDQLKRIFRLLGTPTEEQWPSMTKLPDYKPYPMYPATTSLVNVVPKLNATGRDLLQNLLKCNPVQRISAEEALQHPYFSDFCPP
T2 sequence (Q15078 99-307 partner limits assumed): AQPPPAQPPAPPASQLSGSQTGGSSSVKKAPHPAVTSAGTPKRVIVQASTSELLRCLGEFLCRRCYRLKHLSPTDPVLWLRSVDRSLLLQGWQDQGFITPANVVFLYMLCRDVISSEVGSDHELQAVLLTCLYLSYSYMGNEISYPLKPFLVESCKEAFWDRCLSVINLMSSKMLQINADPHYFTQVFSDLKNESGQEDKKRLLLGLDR
In short: as §1

[4] = biological target: T3, CDK7/Cyclin H/MNAT1 (Homo sapiens, UniProt P50613); assay: Enzymatic assay for CDK7 (LANCE Ultra kinase assay, FRET based); assay type: biochemical; settings: for IC50: ATP at Km
T3 construct: purchased Invitrogen PR6749B
T3 sequence (P50613 whole entry): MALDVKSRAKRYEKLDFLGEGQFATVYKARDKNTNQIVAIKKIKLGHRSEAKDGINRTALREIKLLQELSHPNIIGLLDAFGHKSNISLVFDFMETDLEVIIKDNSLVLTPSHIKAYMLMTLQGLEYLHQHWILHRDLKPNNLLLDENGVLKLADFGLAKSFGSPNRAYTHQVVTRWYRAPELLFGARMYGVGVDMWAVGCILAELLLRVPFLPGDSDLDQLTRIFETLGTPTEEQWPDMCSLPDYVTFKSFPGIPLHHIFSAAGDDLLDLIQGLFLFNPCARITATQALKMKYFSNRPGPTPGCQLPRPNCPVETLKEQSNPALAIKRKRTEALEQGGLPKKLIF
T3 sequence (P51946 whole entry partner): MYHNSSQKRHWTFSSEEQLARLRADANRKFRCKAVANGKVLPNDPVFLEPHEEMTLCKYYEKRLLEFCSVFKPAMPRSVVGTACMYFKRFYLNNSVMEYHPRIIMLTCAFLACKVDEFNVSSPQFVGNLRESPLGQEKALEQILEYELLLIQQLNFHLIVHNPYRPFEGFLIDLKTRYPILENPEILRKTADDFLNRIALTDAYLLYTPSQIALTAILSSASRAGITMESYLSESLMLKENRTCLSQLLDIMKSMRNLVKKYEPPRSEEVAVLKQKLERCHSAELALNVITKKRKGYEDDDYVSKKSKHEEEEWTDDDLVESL
T3 sequence (P51948 whole entry partner): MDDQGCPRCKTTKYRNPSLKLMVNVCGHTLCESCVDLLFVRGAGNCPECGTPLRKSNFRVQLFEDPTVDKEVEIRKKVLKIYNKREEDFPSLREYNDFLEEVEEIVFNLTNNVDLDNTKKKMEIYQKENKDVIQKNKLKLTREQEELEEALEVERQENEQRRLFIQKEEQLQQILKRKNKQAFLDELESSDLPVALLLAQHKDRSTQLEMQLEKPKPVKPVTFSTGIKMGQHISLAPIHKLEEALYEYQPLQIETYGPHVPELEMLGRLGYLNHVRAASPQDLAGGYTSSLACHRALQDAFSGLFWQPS
In short: (§2)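 Inhibition of purified CDK/cyclin complexes was measured with ATP at its Km, using a ULight-labeled peptide substrate. Substrate phosphorylation was detected by FRET with a Europium-labeled anti-phospho-antibody.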

[5] = tested on: OVCAR-3; assay: OVCAR-3 viability assay (CellTiter-Glo, 72 hours); assay type: cell-based; settings: Homo sapiens; OVCAR-3 cells
Description: Human […] cell line, MV4-11_(ATCC, Cat #CRL-9591), NSCLC (Non-small cell lung cancer) cell line H460 (ATCC, Cat #HTB-177), A2780 (ECACC, Cat #93112519) and OVCAR-3(ATCC, Cat #HTB-161) were obtained from ATCC. Cells were grown in RPMI-1640 media (Invitrogen, Cat #22400-089) supplemented with 10% FBS (Invitrogen, Cat #10099141) and 1% penicillin/streptomycin (Invitrogen, Cat #15070063) and cultured at 37° C., 5% CO2 in a humidified chamber. All cell lines were routinely tested for mycoplasma.
To effect of the CDK7 inhibitor to inhibit the growth of target cancer cells, viability assay were conducted a 72 hour time period. Briefly, the candidate cell line was plated in 96 well plate at the following density of cells respectively. 1×10^4 cells/well for MV4-11, 5×10^3 for H460 and OVCAR-3, and 1×10^3 for A2780. After 24 hours, the cells were treated with various concentrations of the compound (ranging from 0.0015 uM to 10 uM). DMSO solvent without compound served as a control and final DMSO concentration lest than 0.1%. After 72 hours of incubation at 37° C., 5% CO2 incubator, cells were analyzed for the viability using the CellTiter-Glo Luminescent Cell Viability Assay (Promega, Cat #G7570). All viability assays were performed in duplicate and Luminescence was read using an Envision (Perkin Elmer, USA). Data was analyzed using XLfit software.

[6] = biological target: T4, CDK1/Cyclin B (Homo sapiens, UniProt P06493); assay: Enzymatic assay for CDK1 (LANCE Ultra kinase assay, FRET based); assay type: biochemical; settings: ATP at Km; read-out: CDK1 enzymatic activity IC50
T4 construct: purchased Invitrogen PR4768C
T4 sequence (P06493 whole entry): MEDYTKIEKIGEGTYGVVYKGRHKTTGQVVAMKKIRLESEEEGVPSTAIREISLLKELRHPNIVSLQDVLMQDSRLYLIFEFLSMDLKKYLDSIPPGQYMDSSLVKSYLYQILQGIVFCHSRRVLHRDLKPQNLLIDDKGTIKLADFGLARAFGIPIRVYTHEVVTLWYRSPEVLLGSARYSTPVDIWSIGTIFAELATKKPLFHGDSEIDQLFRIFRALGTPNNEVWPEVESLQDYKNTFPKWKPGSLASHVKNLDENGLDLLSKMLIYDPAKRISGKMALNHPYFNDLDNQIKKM
T4 sequence (P14635 whole entry partner): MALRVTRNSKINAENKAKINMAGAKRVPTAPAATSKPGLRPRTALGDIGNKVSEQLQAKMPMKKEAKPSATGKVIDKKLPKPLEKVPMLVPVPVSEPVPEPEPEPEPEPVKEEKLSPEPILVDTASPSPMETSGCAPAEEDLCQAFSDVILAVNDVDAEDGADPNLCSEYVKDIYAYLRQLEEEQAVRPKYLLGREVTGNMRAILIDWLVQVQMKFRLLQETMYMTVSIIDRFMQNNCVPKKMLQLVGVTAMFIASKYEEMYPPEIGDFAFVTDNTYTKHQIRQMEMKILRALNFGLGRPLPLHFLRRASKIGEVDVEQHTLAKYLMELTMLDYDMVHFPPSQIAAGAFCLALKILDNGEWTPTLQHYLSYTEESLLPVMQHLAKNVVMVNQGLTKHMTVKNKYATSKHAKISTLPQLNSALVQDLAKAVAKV
In short: as §2

Row | Compound | IC50 [1] [nM] | IC50 [2] [nM] | IC50 [3] [nM] | IC50 [4] [nM] | CDK1/CDK7: Selectivity of CDK7 inhibition over CDK1 inhibition [4] | CDK2/CDK7: Selectivity of CDK7 inhibition over CDK2 inhibition [4] | CDK5/CDK7: Selectivity of CDK7 inhibition over CDK5 inhibition [4] | IC50 [5] [nM] | IC50 [6] [nM]
1 | C=CC(=O)Nc1ccc2c(-c3ccccc3CNc3nc(N4CCS(=O)(=O)CC4)nc4c(C(C)C)cnn34)nccc2c1 [Compound 113] | < 1000 | > 1000 | > 1000 | < 100 | B (B indicates 50 < [fold] ≤ 500) | B (B indicates 50 < [fold] ≤ 500) | B (B indicates 50 < [fold] ≤ 500) | < 1000 | > 1000
2 | C=CC(=O)Nc1ccc2c(-c3ccccc3CNc3nc(NC[C@H]4CNC[C@@H]4O)nc4c(C(C)C)cnn34)nccc2c1 [Compound 111] | < 1000 | > 1000 | > 1000 | < 100 | A (A indicates [fold] > 500) | A (A indicates [fold] > 500) | A (A indicates [fold] > 500) | < 1000 | > 1000
3 | CC(C)c1cnn2c(NCc3ccccc3-c3nccc4cc(NC(=O)/C=C/CN(C)C)ccc34)nc(N3CC4CCC(C3)N4C)nc12 [Compound 123] | < 1000 | > 1000 | > 1000 | < 100 | A (A indicates [fold] > 500) | A (A indicates [fold] > 500) | A (A indicates [fold] > 500) | < 1000 | > 1000
4 | CC(C)c1cnn2c(NCc3ccccc3-c3nccc4cc(NC(=O)/C=C/CN(C)C)ccc34)nc(N3CCC(S(=O)(=O)N(C)C)CC3)nc12 [Compound 126] | < 1000 | > 1000 | > 1000 | 100 to 1000 | B (B indicates 50 < [fold] ≤ 500) | B (B indicates 50 < [fold] ≤ 500) | B (B indicates 50 < [fold] ≤ 500) | < 1000 | > 1000
5 | COC1CC2CCC(C1)N2c1cc(NCc2ccccc2-c2nccc3cc(NC(=O)/C=C/CN(C)C)ccc23)n2ncc(C(C)C)c2n1 (stereo not drawn) [Compound 125] | < 1000 | > 1000 | > 1000 | 100 to 1000 | B (B indicates 50 < [fold] ≤ 500) | B (B indicates 50 < [fold] ≤ 500) | B (B indicates 50 < [fold] ≤ 500) | < 1000 | > 1000
6 | C=C(F)C(=O)Nc1ccc2c(-c3ccccc3CNc3nc(O[C@@H]4CCCNC4)nc4c(C(C)C)cnn34)nccc2c1 [Compound 137] | < 1000 | > 1000 | > 1000 | < 100 | A (A indicates [fold] > 500) | A (A indicates [fold] > 500) | A (A indicates [fold] > 500) | < 1000 | > 1000
7 | C=C(C)C(=O)Nc1ccc2c(-c3ccccc3CNc3nc(NC4CCC(C)(C)NC4)nc4c(C(C)C)cnn34)nccc2c1 (stereo not drawn) [Compound 181] | < 1000 | > 1000 | > 1000 | < 100 | A (A indicates [fold] > 500) | A (A indicates [fold] > 500) | A (A indicates [fold] > 500) | < 1000 | > 1000
8 | C=C(F)C(=O)Nc1ccc2c(-c3ccccc3CNc3nc(NC[C@H]4CNC[C@@H]4O)nc4c(C(C)C)cnn34)nccc2c1 [Compound 83] | < 1000 | > 1000 | > 1000 | < 100 | A (A indicates [fold] > 500) | A (A indicates [fold] > 500) | A (A indicates [fold] > 500) | < 1000 | > 1000
9 | C=C(F)C(=O)Nc1ccc2c(-c3ccccc3CNc3nc(N4CCC(OC(C)C)CC4)nc4c(C(C)C)cnn34)nccc2c1 [Compound 89] | 1000 to 10000 | > 1000 | > 1000 | > 1000 | C (C indicates [fold] ≤ 50) | C (C indicates [fold] ≤ 50) | C (C indicates [fold] ≤ 50) | 1000 to 10000 | > 1000
10 | C=C(F)C(=O)Nc1ccc2c(-c3ccccc3CNc3nc(N4CCCC(OC)CC4)nc4c(C(C)C)cnn34)nccc2c1 (stereo not drawn) [Compound 100] | 1000 to 10000 | > 1000 | > 1000 | > 1000 | C (C indicates [fold] ≤ 50) | C (C indicates [fold] ≤ 50) | C (C indicates [fold] ≤ 50) | 1000 to 10000 | > 1000
11 | C=C(F)C(=O)Nc1ccc2c(-c3ccccc3CNc3cc(NCC4CNCCO4)nc4c(C(C)C)cnn34)nccc2c1 (stereo not drawn) [Compound 94] | < 1000 | > 1000 | > 1000 | < 100 | A (A indicates [fold] > 500) | A (A indicates [fold] > 500) | A (A indicates [fold] > 500) | < 1000 | > 1000
12 | C=C(F)C(=O)Nc1ccc2c(-c3ccccc3CNc3nc(N4CCc5ncccc5C4)nc4c(C(C)C)cnn34)nccc2c1 [Compound 170] | < 1000 | > 1000 | > 1000 | 100 to 1000 | B (B indicates 50 < [fold] ≤ 500) | B (B indicates 50 < [fold] ≤ 500) | B (B indicates 50 < [fold] ≤ 500) | 1000 to 10000 | > 1000
13 | C=CC(=O)Nc1ccc2c(-c3ccccc3CNc3nc(N[C@H]4CC[C@H](OC)CC4)nc4c(C(C)C)cnn34)nccc2c1 [Compound 95] | < 1000 | > 1000 | > 1000 | < 100 | A (A indicates [fold] > 500) | A (A indicates [fold] > 500) | A (A indicates [fold] > 500) | < 1000 | > 1000
14 | C=C(F)C(=O)Nc1ccc2c(-c3ccccc3CNc3nc(N[C@H]4CC[C@@H](OC)C4)nc4c(C(C)C)cnn34)nccc2c1 [Compound 96] | < 1000 | > 1000 | > 1000 | 100 to 1000 | B (B indicates 50 < [fold] ≤ 500) | B (B indicates 50 < [fold] ≤ 500) | B (B indicates 50 < [fold] ≤ 500) | < 1000 | > 1000
15 | C=CC(=O)Nc1ccc2c(-c3ccccc3CNc3cc(N4CCC5(CC4)OCCO5)nc4c(C(C)C)cnn34)nccc2c1 [Compound 118] | < 1000 | > 1000 | > 1000 | < 100 | A (A indicates [fold] > 500) | A (A indicates [fold] > 500) | A (A indicates [fold] > 500) | < 1000 | > 1000
